Reference: patent US8138158B2, “Compositions and methods for therapy for diseases characterized by defective chloride transport” (Children's Hospital & Research Center at Oakland, priority 1997, dated 2012)

Key:
[1] = test system: wildtype CFTR-corrected CF15 monolayers; assay: Short-circuit current across wildtype CFTR-corrected CF15 monolayers; assay type: cell-based, human
Protocol: (§1) Human airway cell culture. The human submucosal serous gland-like cell line Calu-3, the CF nasal epithelial cell line homozygous for ΔF508 CFTR (CF15) and human tracheal primary cultures (hTE) were cultured as described (Jefferson, D. M., Valentich, J. D., Marini, F. C., Grubman, S. A., Iannuzzi, M. C., Dorkin, H. L., Li, M., Klinger, K. W. & Welsh, M. J. (1990) Am. J. Physiol. 259, L496-L505. Sachs, L. A., Finkbeiner, W. E. & Widdicombe, J. H. (2003) In Vitro Cell Dev. Biol. Anim. 39, 56-62.). Wildtype CFTR-corrected CF15 cells were generated via adenovirus-mediated gene transfer. Growth media were nominally free of ascorbic acid (<10 μm, University Pathology Inc., Salt Lake City, Utah). For transepithelial measurements cells were grown on permeable filter inserts and used after 3 to 10 days.
(§2) Short-circuit current measurement. Calu-3 or CF15 cells were grown as monolayers, mounted in Ussing chambers and short-circuit current (ISC) was recorded as described (Illek, B. & Fischer, H. (1998) Am. J. Physiol. 275, L902-L910). At 20-50 second intervals, transepithelial voltage was clamped from zero to 2 mV and the transepithelial resistance (Rte) was calculated. A serosa-to-mucosa-directed Cl gradient was applied. Serosal Ussing chamber solution contained (in mM): 120 NaCl, 20 NaHCO3, 5 KHCO3, 1.2 NaH2PO4, 5.6 glucose, 2.5 CaCl2, 1.2 MgCl2. In mucosal Ussing chamber solutions, all Cl salts were exchanged for gluconate salts.
(§3) The CF15 cell line was used to determine whether ascorbate-stimulated Cl currents were solely mediated by the CFTR Cl conductance. The CF15 cell line is characterized by the absence of functional CFTR in the apical plasma membrane but the presence of other non-CFTR Cl conductances (Jefferson, D. M., Valentich, J. D., Marini, F. C., Grubman, S. A., Iannuzzi, M. C., Dorkin, H. L., Li, M., Klinger, K. W. & Welsh, M. J. (1990) Am. J. Physiol. 259, L496-L505). A concentration of L-ascorbic acid that lay within the upper plateau of the dose response curve (500 μm) was applied and ascorbate-stimulated Cl currents in CF15 vs. wildtype CFTR-corrected CF15 monolayers was compared (FIG. 23A). […] The defective response to L-ascorbic acid was reversed in wildtype CFTR-corrected CF15 epithelia such that ISC responded promptly to L-ascorbic acid (ΔISC=7.5±0.5 μA/cm^2, n=6). The ascorbate-stimulated current was further activated by the cAMP agonist forskolin and total stimulated ISC averaged 12.1±1.1 μA/cm^2 (FIG. 4B). The ascorbate-stimulated Cl current reached 60±15% of the forskolin-stimulated current in CFTR-corrected CF15 monolayers, which was close to the corresponding findings in Calu-3 monolayers (68%, see FIG. 21A). The absence of ascorbate-stimulated Cl currents in CF15 monolayers supports the notion that non-CFTR Cl conductances were not activated by L-ascorbic acid.
(§4) In this example, chloride currents stimulated by L-ascorbate or D-ascorbate were measured in CF15 versus. wildtype CFTR-corrected CF15 monolayers. A concentration of L-ascorbate (1 mM) or D-isoascorbate (300 μm) that lay within the upper plateau of the dose-response curve was applied to cells and the resulting chloride currents stimulated in CF15 versus wildtype CFTR-corrected CF15 monolayers were measured (FIG. 25 A-H). All experiments were performed in the presence of the sodium channel blocker amiloride. […]

[2] = test system: CF15 monolayers homozygous for ΔF508 CFTR; assay: Short-circuit current across CF15 monolayers homozygous for ΔF508 CFTR; assay type: cell-based, human
Protocol: as §1, §2
as §3, with “The absence of ascorbate-stimulated Cl currents in CF15 monolayers supports the notion that non-CFTR Cl conductances were not activated by L-ascorbic acid.” left out
as §4, with “A-H).” for “A-H). All experiments were performed in the presence of the sodium channel blocker amiloride.”
The functional activation of ΔF508 CFTR was determined after correction of the underlying trafficking defect of ΔF508 CFTR using S-Nitrosoglutathione (Zaman, et al., Biochem Biophys Res Commun 284: 65-70, 2001; Snyder, et al., American Journal of Respiratory and Critical Care Medicine 165: 922-6, 2002; Andersson, et al. Biochemical and Biophysical Research Communication 297(3): 552-557, 2002.). […]

With `O=C1O[C@H](C(O)CO)C(O)=C1O` (stereo partly drawn) [L-ascorbic acid, L-xyloascorbic acid] the “ascorbate-stimulated Cl current, % of the forskolin-stimulated current” value [1] was 60±15%, the ΔIsc ([1]; L-ascorbate 1 mM, amiloride, n=6) was 7.5±0.5 μA/cm2 and the ΔISC ([1]; L-ascorbic acid 500 μm, n=6) was 7.5±0.5 μA/cm^2. For the same molecule, the “transepithelial chloride currents increased on average by” value ([2]; CF15 treated with 1 mM SNOG for 5-24 hours, L-ascorbate 1 mM, n=10) was 2.1±0.1, the ΔISC ([2]; uncorrected CF15, L-ascorbic acid 500 μm, n=5) was 1.3±0.5 μA/cm^2 and the ΔIsc ([2]; untreated CF epithelia, L-ascorbate 1 mM, amiloride, n=13) was 1.1±0.3 μA/cm^2.
